Data taken from the supplement of paper PMC10307832.

Columns and labels:
Test in all cases: relative viability (nuclei count vs DMSO), 5 days (fraction); higher = more cells survive
[1] = compound: CN(C)C(=N)NC(=N)N [Metformin] + Cc1nc(Nc2ncc(C(=O)Nc3c(C)cccc3Cl)s2)cc(N2CCN(CCO)CC2)n1 [Dasatinib] (partner 0.075 µM)
Outline: (§1)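 After 5 days of treatment, lung cancer cells in 1536-well plates were fixed and stained in a single step (final 0.05% Triton X-100, 1% formaldehyde, 1 ug/ml Hoechst) and their nuclei counted on 4× images. Treatment had been applied by pin tool the day after seeding as one drug alone or as a fixed anchor-drug dose with five library-drug doses (not always all listed) in √10 steps. Relative viability is the nuclei count of treated wells divided by that of vehicle wells, and values are medians of duplicate plates.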

[2] = compound: N#CC1(c2ccc(NC(=O)c3cccnc3NCc3ccncc3)cc2)CCCC1 [Apatinib] + CC(=O)Nc1cccc(-n2c(=O)n(C3CC3)c(=O)c3c(Nc4ccc(I)cc4F)n(C)c(=O)c(C)c32)c1 [Trametinib] (partner 0.02 µM)
Outline: as §1

[3] = compound: N#CC1(c2ccc(NC(=O)c3cccnc3NCc3ccncc3)cc2)CCCC1 [Apatinib] + COc1cc2c(Oc3ccc(NC(=O)C4(C(=O)Nc5ccc(F)cc5)CC4)cc3F)ccnc2cc1OCCCN1CCOCC1 [Foretinib] (partner 0.25 µM)
Outline: as §1

[4] = compound: N#CC1(c2ccc(NC(=O)c3cccnc3NCc3ccncc3)cc2)CCCC1 [Apatinib] + CS(=O)(=O)N1CCN(Cc2cc3nc(-c4cccc5[nH]ncc45)nc(N4CCOCC4)c3s2)CC1 [Pictilisib] (partner 1 µM)
Outline: as §1

Cell Line | relative viability ([1]; first compound 10 µM) | relative viability ([1]; first compound 31.62 µM) | relative viability ([1]; first compound 100 µM) | relative viability ([1]; first compound 316.23 µM) | relative viability ([1]; first compound 1000 µM) | relative viability ([2]; first compound 0.08 µM) | relative viability ([2]; first compound 0.253 µM) | relative viability ([2]; first compound 0.8 µM) | relative viability ([2]; first compound 2.53 µM) | relative viability ([2]; first compound 8 µM) | relative viability ([3]; first compound 0.08 µM) | relative viability ([3]; first compound 0.253 µM) | relative viability ([3]; first compound 0.8 µM) | relative viability ([3]; first compound 2.53 µM) | relative viability ([3]; first compound 8 µM) | relative viability ([4]; first compound 0.08 µM) | relative viability ([4]; first compound 0.253 µM) | relative viability ([4]; first compound 0.8 µM) | relative viability ([4]; first compound 2.53 µM) | relative viability ([4]; first compound 8 µM)
NCI-H1651 | 0.757 | 0.349 | 0.346 | 0.361 | 0.464 | 0.84 | 0.874 | 0.821 | 0.75 | 0.684 | 0.925 | 0.897 | 0.765 | 0.577 | 0.495 | 0.665 | 0.565 | 0.494 | 0.614 | 0.476
COR-L23 | 0.496 | 0.436 | 0.413 | 0.393 | 0.121 | 0.721 | 0.666 | 0.574 | 0.466 | 0.376 | 1.03 | 0.952 | 0.926 | 0.903 | 0.836 | 0.966 | 0.777 | 0.788 | 0.65 | 0.658
A-427 | 0.53 | 0.722 | 0.676 | 0.74 | 0.695 | 0.832 | 0.741 | 0.726 | 0.737 | 0.521 | 1.22 | 0.828 | 1.03 | 1.01 | 0.598 | 0.925 | 0.679 | 0.715 | 0.611 | 0.592
NCI-H2342 | 0.315 | 0.291 | 0.326 | 0.285 | 0.356 | 0.918 | 0.777 | 0.916 | 0.846 | 0.834 | 1.01 | 1.05 | 1.02 | 0.983 | 0.936 |  |  |  |  | 
201T |  | 0.579 | 0.63 | 0.53 | 0.559 | 0.731 | 0.725 | 0.68 | 0.729 | 0.607 | 1.15 | 1.11 | 1.05 | 1.06 | 0.813 | 0.748 | 0.643 | 0.662 | 0.604 | 0.663
NCI-H522 | 1.07 | 1.15 | 1.18 | 1.02 | 1.07 | 0.799 | 0.77 | 0.731 | 0.592 | 0.68 |  |  |  |  |  |  |  |  |  | 
NCI-H2023 | 0.599 | 0.618 | 0.703 | 0.493 | 0.662 | 0.635 | 0.647 | 0.492 | 0.489 | 0.399 | 0.963 | 0.751 | 0.849 | 1.02 | 0.794 | 0.269 | 0.228 | 0.209 | 0.209 | 0.231
NCI-H2085 | 0.327 | 0.336 | 0.333 | 0.306 | 0.358 | 0.608 | 0.53 | 0.39 | 0.576 | 0.426 | 0.991 | 1.05 | 0.79 | 0.854 | 0.817 | 0.464 | 0.457 | 0.475 | 0.449 | 0.499
LXF-289 | 0.186 | 0.188 | 0.188 | 0.137 | 0.236 | 0.667 | 0.705 | 0.638 | 0.608 | 0.56 | 0.915 | 1.02 | 0.984 | 0.954 | 0.905 | 0.838 | 0.828 | 0.76 | 0.714 | 0.72
NCI-H1975 | 0.558 | 0.417 | 0.553 | 0.418 | 0.402 | 0.352 | 0.3 | 0.417 | 0.424 | 0.36 | 1.13 | 0.907 | 0.84 | 0.862 | 0.783 | 0.305 | 0.335 | 0.304 | 0.28 | 0.322
LU99A | 0.415 | 0.459 | 0.511 | 0.516 | 0.538 | 0.58 | 0.552 | 0.543 | 0.486 | 0.29 | 0.88 | 0.891 | 0.769 | 0.78 | 0.682 | 0.333 | 0.327 | 0.332 | 0.302 | 0.295
HCC-827 |  | 0.317 | 0.356 | 0.317 | 0.316 | 0.525 | 0.533 | 0.492 | 0.519 | 0.425 | 1.05 | 1.04 | 1.01 | 1 | 0.763 | 1.04 | 0.867 | 0.806 | 0.777 | 1.01
BEN | 0.421 | 0.409 | 0.34 | 0.281 | 0.414 | 1.22 | 0.944 | 1.11 | 0.948 | 0.687 | 0.477 | 0.548 | 0.668 | 0.558 | 0.726 | 0.557 | 0.526 | 0.55 | 0.464 | 0.468
Calu-6 |  |  |  |  |  |  |  |  |  |  | 0.994 | 0.915 | 0.799 | 0.766 | 0.791 | 0.954 | 0.951 | 0.813 | 0.864 | 0.602
IA-LM |  |  |  |  |  |  |  |  |  |  | 1.33 | 1.13 | 1.09 | 0.703 | 0.38 | 0.384 | 0.266 | 0.363 | 0.325 | 0.287
EBC-1 |  |  |  |  |  |  |  |  |  |  | 0.111 | 0.0844 | 0.0979 | 0.0995 | 0.1 | 0.36 | 0.345 | 0.299 | 0.247 | 0.157
NCI-H1563 | 0.535 | 0.573 | 0.574 | 0.545 | 0.489 |  |  |  |  |  | 0.897 | 0.996 | 0.884 | 0.812 | 0.897 | 0.644 | 0.656 | 0.62 | 0.644 | 0.632
NCI-H1623 | 0.376 | 0.518 | 0.511 | 0.627 | 0.478 |  |  |  |  |  | 0.912 | 0.826 | 0.844 | 0.802 | 0.777 |  |  |  |  | 
NCI-H1648 |  |  |  |  |  | 0.466 | 0.467 | 0.39 | 0.537 | 0.335 |  |  |  |  |  |  |  |  |  | 
NCI-H1792 |  | 1.05 | 0.982 | 0.754 | 0.756 | 0.433 | 0.436 | 0.349 | 0.342 | 0.302 |  |  |  |  |  | 0.309 | 0.278 | 0.334 | 0.191 | 0.243
NCI-H1299 |  |  |  |  |  |  |  |  |  |  | 1.14 | 1.13 | 1.09 | 1.09 | 0.941 | 0.882 | 0.88 | 0.738 | 0.646 | 0.406
